Source: US4109009A, “Analgesic, relaxant, and anti-inflammatory cyclopentanol derivatives” (Roussel Uclaf, priority 1975, dated 1978)
pIC50: −log10 of the molar value. Converted amounts (≈) assume the structure as drawn.

Legend:
[1] = test system: guinea pig ileon; test: Relaxant activity on the guinea pig ileon; conditions: Cavia porcellus, Tyrode 37° C, concentration suppressing spontaneous contractions and relaxing the organ, read-out: Relaxant action
Method: B. Relaxant Activity on the guinea pig ileon
The relaxant effect of the test compounds was determined on guinea pig ileon using the procedure of Test A above. The terminal portion of the guinea pig ileon was removed and washed with Tyrode solution at 37° C. It was then suspended in an bath of oxygenated Tyrode liquid at 37° C and the contractions were registered on a collector attached to a Sanborn polygraph. The test product was added to bath of the organ with a low volume and the concentration which caused a suppression of spontaneous contractions and relaxed the organ, cuasing a lowering of the line of the base was considered to be relaxant.

[2] = test system: prostaglandin synthetases of lungs of guinea pigs; test: Inhibitory effect against biosynthesis of prostaglandins from arachidonic acid (Vane); type: biochemical; conditions: guinea pig lung homogenate supernatant, arachidonic acid 10 μg, 30 minutes at 37° C; read-out on isolated rat colon; read-out: CI50 (the source's name)
Text: D. Inhibitory effect against biosynthesis of prostaglandins
Synthesis of prostaglandins starting with arachidonic acid by means of prostaglandin synthetases of lungs of guinea pigs
This test used the procedure of Vane [Nature New-Biology, Vo. 231 (1971), p. 232-235] wherein the lungs of adult guinea pigs (two per series) were rapidly removed and washed with a modified, iced Bucher medium. The lung tissue was homogenized in a Turrax grinder in a minute and the homogenate was centrifuged for 20 minutes to 1200 g. The supernatant was used as a preparation of prostaglandin synthetases.
A solution of arachidonic acid in ethanol at a concentration of 10 mg/ml was diluted with a 0.2% aqueous sodium carbonate solution and was then diluted further with a modified Bucher medium to obtain a final acid concentration of 200 μg/ml. The biosynthesis inhibitors are put into aqueous on dilute alcohol (20% maximum) solutions. Tubes were prepared containing 1 ml of the prostaglandin synthetases preparation, 10 μg of arachidonic acid and 0.1 ml of inhibiting solution or, for the controls, an equal volume of water or dilute alcohol. The tubes were incubated with stirring for 30 minutes at 37° C in aerobic conditions and each test consisted of a tube containing a biosynthesis inhibitor, one biosynthesis control with incubated arachidonic acid and one control with non-incubated arachidonic acid. The latter control permitted a evaluation of amount of natural prostaglandins present in the ground lung and the results obtained with this control must therefore be taken away from the control of biosynthesis and from all the tests. The reactions are stopped by immersion in boiling water until the proteins are coagulated. The dosage of "prostaglandin like" activity was effected biologically on the isolated rat colon suspended in Krebs liquid, mixed to augment the specificity, with antagonists to other contracturant mediators susceptible to interfere. The antagonists were mepyramine, scopolamine, methysergide, phenoxybenzamine and propanolol.
A comparison of the results registered in the presence or absence of a test product permitted the calculation of the percentage of biosynthesis inhibition. The CI50 dose which inhibited by 50% the biosynthesis activity was graphically obtained by straight line representing the percent of inhibition with reference to the incubated controls against the log of the concentration in μg/ml and the results are reported in Table IV.

[3] = test system: mice; test: Analgesic activity -- stretching provoked by acetic acid (Koster et al); type: in vivo; conditions: Mus musculus, 0.25 h, oral, one half hour before intraperitoneal acetic acid, 15 minute observation, dose reducing stretchings by 50%, read-out: DA50 (the source's name)
Method: C. Analgesic Activity -- stretching provoked by acetic acid
The test procedure was that of Koster et al wherein an interitoneal injection of aqueous acetic acid in a concentration of 1% at a dose of 100 mg/kg caused in mice repeated movements of strectching and twisting which can persist for more than 6 hours. Analgesics prevent or lessen the syndrome. The test products were orally administered one half hour before the acetic acid injection and the mice were fasted from the day before the tests. The stretching were counted for each mouse during a 15 minute observation period beginning right after the acetic acid injection and the analgesic affect was expressed as a percentage of protection with respect to the controls.

[4] = test system: prostaglandin E2; test: Antagonistic activity to the contracturant effect of prostaglandin E2 (isolated rat colon, method of Magnus); conditions: Krebs 37° C, product added 30 seconds before PGE2 (5 to 10 ng/ml), 50% inhibition of contractions
Method: A. Antagonistic activity to the contracturant effect of prostaglandin E2
The antagonistic effect of the test compounds to the contracturant activity of prostaglandin E2 was determined by the method of Magnus wherein a portion of the colon adjacent to the caecum was removed from a rat and was washed with a Krebs solution at 37° C. The colon was then suspended in a bath of oxygenated Krebs liquid kept at 37° C and the contactions of the organ were registered with a collector attached to a Sanborn polygraph. The organ was first standarized with prostaglandin E2 to determine the concentration necessary to obtain a significant contraction (5 to 10 ng/ml). The antagonistic product was added to the bath 30 seconds before the standard dose of PGE2 and the intensity of the contraction was measured. The concentration of product which inhibited by 50% the contractions provoked by PGE2 was determined by the straight line effect-log of the dose and the CI50 is reported in Table I.

Row | pIC50 [2] | Compound | minimal effective concentration [1] [µg/mL] | ED50 [3] [mg/kg] | CI50 against PGE2 [4] [µg/mL]
1 | – | CCCCC[C@@H](/C=C/[C@H]1CC[C@@H](O)[C@@H]1C(=O)OC)OC1CCCCO1 (relative stereo) [L] | 5 | – | –
2 | 3.30 | CCCCCC(C)(O)/C=C/[C@H]1CC[C@@H](O)[C@@H]1C(=O)OCC (some centres unmarked) [C] | 1 | – | –
3 | 3.42 | C#C[C@@](/C=C/[C@H]1CC[C@@H](O)[C@@H]1C(=O)OCC)(CCCCC)OC1CCCCO1 (relative stereo) [P] | 5 | ~100 | –
4 | 3.64 | C#C[C@@](/C=C/[C@H]1CC[C@H](O)[C@@H]1C(=O)OCC)(CCCCC)OC1CCCCO1 (relative stereo) [O] | – | – | –
5 | – | C#C[C@@](O)(/C=C/[C@H]1CC[C@H](O)[C@@H]1C(=O)OCC)CCCCC (relative stereo) [N] | 5 | – | –
6 | – | CCCCC[C@H](O)/C=C/[C@H]1CC[C@@H](O)[C@@H]1C(=O)OCC (relative stereo) [A] | 20 | – | 20 (≈ 70.3 µM)
7 | – | CCCCC[C@@H](/C=C/[C@H]1CC[C@@H](O)[C@@H]1C(=O)CCC)OC1CCCCO1 (relative stereo) [Q] | 10 | – | –
8 | – | CCCCC[C@@H](CC[C@H]1CC[C@H](O)[C@@H]1C(=O)OCC)OC1CCCCO1 (relative stereo) [H] | 10 | – | –
9 | 3.22 | CCCCCC(C)(O)/C=C/[C@H]1CC[C@H](O)[C@@H]1C(=O)OCC (some centres unmarked) [E] | 5 | – | –
10 | 3.69 | CCCCC[C@@H](/C=C/[C@H]1CC[C@@H](O)[C@@H]1C(=O)OCC)OC1CCCCO1 (relative stereo) [G] | 20 | ~100 | 20 (≈ 54.3 µM)
11 | 4.27 | CCCCC[C@@H](/C=C/[C@H]1CC[C@H](O)[C@@H]1C(=O)OCC)OC1CCCCO1 (relative stereo) [F] | 20 | ~100 | 20 (≈ 54.3 µM)
12 | – | CCCCC[C@@H](/C=C/[C@H]1CC[C@H](O)[C@@H]1C(=O)OCCC)OC1CCCCO1 (relative stereo) [J] | 10 | – | –
13 | 3.20 | CCCCC[C@@H](/C=C/[C@H]1CC[C@H](O)[C@@H]1C(=O)CCC)OC1CCCCO1 (relative stereo) [S] | – | – | –
14 | 3.42 | CCCCC[C@H](O)/C=C/[C@H]1CC[C@H](O)[C@@H]1C(=O)OCC (relative stereo) [B] | 20 | 100 | –
15 | – | CCCCC[C@@H](/C=C/[C@H]1CC[C@H](O)[C@@H]1C(=O)OC)OC1CCCCO1 (relative stereo) [I] | 5 | – | –
16 | – | C#C[C@@](/C=C/[C@H]1CC[C@H](O)[C@@H]1C(=O)OCC)(CCCCC)OC1CCCCO1 (relative stereo) [Product O, Ethyl (1RS, 2SR, 5RS, 3'SR) (1'E) 2-hydroxy-5-(3'-α-tetrahydropyranyloxy-3'-ethynyl-1'-octenyl)-cyclopentanecarboxylate] | 10 | – | –
17 | – | CCCCC[C@@H](CC[C@H]1CC[C@@H](O)[C@@H]1C(=O)OCC)OC1CCCCO1 (relative stereo) [K] | 5 | – | –
18 | 3.28 | CCCCCCCCCOC(=O)[C@H]1[C@@H](O)CC[C@@H]1/C=C/[C@@H](O)CCCCC (relative stereo) [D] | 10 | – | –
19 | 3.19 | CCCCC[C@@H](/C=C/[C@H]1CC[C@@H](O)[C@@H]1C(=O)OCCC)OC1CCCCO1 (relative stereo) [M] | 5 | – | –
20 | 3.27 | CCCCC[C@@H](/C=C/[C@H]1CC[C@@H](O)[C@H]1C(=O)OCC)OC1CCCCO1 (relative stereo) [R] | – | – | –
